Several values for one entry are separate records, joined by “and”; a condition that tells them apart may be missing. Identical values can stand only once.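 48-hour exposure; five concentrations; linearly interpolated endpoints. GI50 = concentration required for 50% inhibition of growth. TGI is the concentration that stops growth completely.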

Test systems include K-562 leukemia; DU-145 prostate; UACC-257 melanoma; ACHN renal; T-47D breast; MCF7 breast; CCRF-CEM leukemia; UACC-62 melanoma; MOLT-4 leukemia; HS 578T breast.
What all share (assay): NCI-60 cell line screen, 48 h

With `O=[N+]([O-])c1ccccc1N=Nc1c(O)[nH]c2c(Cl)cc(Cl)cc12`, the TGI is above 100 µM in the assay with K-562 leukemia; above 100 µM in the assay with DU-145 prostate; above 100 µM in the assay on UACC-257 melanoma; 46.8 µM with ACHN renal; above 100 µM in the assay on T-47D breast; above 100 µM with MCF7 breast. Moreover, the TGI in the assay with CCRF-CEM leukemia was above 100 µM; in the assay with UACC-62 melanoma, above 100 µM; with MOLT-4 leukemia, above 87.8 µM; with HS 578T breast it was 53 µM.

Take `COc1cc(/C=C2\CCCCC3=C2N=C2SC(C)=CN2C3c2cc(OC)c(OC)c(OC)c2)cc(OC)c1OC` (centres undefined): the GI50 with K-562 leukemia was 0.36 µM; in the assay with DU-145 prostate, above 100 µM; in the assay with UACC-257 melanoma, 0.403 µM; with ACHN renal it was 11.9 µM; in the assay on T-47D breast, 0.566 µM; with MCF7 breast, 22.6 µM. Besides, the GI50 in the assay with CCRF-CEM leukemia is 34.7 µM; with UACC-62 melanoma, 3.26 µM; in the assay with MOLT-4 leukemia, 0.542 µM; with HS 578T breast, 16 µM. Moreover, the TGI with K-562 leukemia, in the assay with DU-145 prostate, in the assay on UACC-257 melanoma, in the assay on ACHN renal, in the assay with T-47D breast and with MCF7 breast was above 100 µM each time. The TGI in the assay on CCRF-CEM leukemia was above 100 µM; with UACC-62 melanoma, above 100 µM; with MOLT-4 leukemia it was 78 µM; with HS 578T breast, above 100 µM.

`Cc1ccc2c(c1)c1ccc3c(c1n2C)C(=O)C=CC3=O`: the TGI in the assay with K-562 leukemia is 2.31 µM; with DU-145 prostate, above 10 µM; in the assay with UACC-257 melanoma it was 7.9 µM; in the assay on ACHN renal, 3.02 µM; in the assay with T-47D breast, 5.08 µM; with MCF7 breast, 4.99 µM. For the same compound, the TGI came to 0.62 µM in the assay on CCRF-CEM leukemia, 9.48 µM with UACC-62 melanoma, 2.19 µM with MOLT-4 leukemia and 8.66 µM in the assay with HS 578T breast.

In the case of `O=C(CC(=O)Nc1ccccc1)NNC(Sc1ccccc1)c1cc(N=Nc2ccc(Br)cc2)ccc1O` (centres undefined), the TGI in the assay on K-562 leukemia is 6.27 µM; in the assay on DU-145 prostate it was above 10 µM; in the assay on UACC-257 melanoma it was above 10 µM; in the assay with ACHN renal, above 10 µM; in the assay on T-47D breast, above 10 µM; with MCF7 breast it was above 10 µM. In addition, the TGI is above 10 µM with CCRF-CEM leukemia, 9.81 µM in the assay on UACC-62 melanoma, above 10 µM in the assay on MOLT-4 leukemia and above 10 µM with HS 578T breast.

In the case of `COc1ccc(/C=C\c2cc(OC)c(OC)c(OC)c2)cc1OCC(=O)O`, the TGI in the assay on K-562 leukemia is above 100 µM; with DU-145 prostate, 47.2 µM; in the assay on UACC-257 melanoma it was above 100 µM; in the assay on ACHN renal it was above 100 µM; with T-47D breast it was above 100 µM; in the assay with MCF7 breast it was above 100 µM. The TGI in the assay on CCRF-CEM leukemia was above 100 µM; in the assay on UACC-62 melanoma, above 100 µM; in the assay on MOLT-4 leukemia, above 100 µM; in the assay on HS 578T breast, 9.25 µM.

As to `O=C(Nc1nc(-c2c[nH]c3ccccc23)cs1)c1n[nH]c(=O)c2ccccc12`, the GI50 was 1.27 µM with K-562 leukemia; 3.33 µM in the assay on DU-145 prostate; 38.4 µM in the assay with UACC-257 melanoma; 8.98 µM in the assay on ACHN renal; above 46.4 µM with T-47D breast; 2.01 µM in the assay on MCF7 breast. The GI50 in the assay on CCRF-CEM leukemia is 1.27 µM; with UACC-62 melanoma, 1.45 µM; with MOLT-4 leukemia, 0.792 µM; in the assay with HS 578T breast it was 5.52 µM. Also, the TGI in the assay with K-562 leukemia was above 100 µM; in the assay on DU-145 prostate it was above 31 µM; with UACC-257 melanoma it was above 100 µM; in the assay with ACHN renal, above 69.1 µM; in the assay with T-47D breast, above 96.2 µM; in the assay with MCF7 breast it was above 100 µM. Also, the TGI with CCRF-CEM leukemia is 98.8 µM; in the assay with UACC-62 melanoma, above 100 µM; in the assay with MOLT-4 leukemia, above 35.4 µM; in the assay on HS 578T breast, 55 µM.

`CCn1cc(-c2ccnc3[nH]c(-c4cccc(CN(C)C)c4)cc23)c(-c2ccc(NC(=O)N(C)C)cc2)n1`: the TGI was 17.2 µM and 2.96 µM in the assay with K-562 leukemia; 37.8 µM and > 10 µM in the assay with DU-145 prostate; 21.7 µM and > 10 µM with UACC-257 melanoma; 10.2 µM and > 10 µM with ACHN renal; 77.3 µM and > 10 µM with T-47D breast; 19.4 µM and > 10 µM in the assay on MCF7 breast. In addition, the TGI is 51.6 µM in the assay with CCRF-CEM leukemia; 22.5 µM and > 10 µM with UACC-62 melanoma; 39.3 µM and > 10 µM in the assay with MOLT-4 leukemia; 9.99 µM and 6.9 µM in the assay on HS 578T breast. Moreover, the GI50 with DU-145 prostate is 3.63 µM and 1.97 µM; in the assay on UACC-257 melanoma, 4.76 µM and > 10 µM; with ACHN renal it was 1.73 µM and 2.45 µM; with T-47D breast, 13.3 µM and > 10 µM; in the assay on MCF7 breast it was 0.487 µM and 0.312 µM; in the assay with CCRF-CEM leukemia it was below 0.01 µM. The GI50 was 2.49 µM and 5.74 µM in the assay on UACC-62 melanoma; 2.15 µM and 1.74 µM in the assay on MOLT-4 leukemia; 1.52 µM and 1.2 µM with HS 578T breast.

Consider `COc1ccc(-c2cc(=O)oc3c4c(ccc23)OCN(Cc2ccc(F)cc2)C4)cc1`, for which the GI50 in the assay on K-562 leukemia was 19.3 µM; with DU-145 prostate, 24.3 µM; in the assay on UACC-257 melanoma, 14.9 µM; with ACHN renal, 19.4 µM; with T-47D breast, 13.5 µM; in the assay with MCF7 breast, 15.7 µM. The GI50 with CCRF-CEM leukemia is 25.8 µM; in the assay with UACC-62 melanoma, 14.7 µM; with MOLT-4 leukemia it was 19.4 µM; in the assay on HS 578T breast it was 15.8 µM. Further, the TGI in the assay on K-562 leukemia worked out at 68.4 µM; in the assay on DU-145 prostate, 59.9 µM; in the assay on UACC-257 melanoma it was 29.9 µM; in the assay with ACHN renal, 65 µM; in the assay with T-47D breast, 43.8 µM; in the assay with MCF7 breast it was 34.5 µM. The TGI is 82 µM in the assay on CCRF-CEM leukemia, 29.3 µM in the assay with UACC-62 melanoma, 58.3 µM in the assay with MOLT-4 leukemia and 47.9 µM in the assay with HS 578T breast.

As to `COc1cc2c3c(n(C)c(=O)c2cc1OC)-c1cc2c(cc1C3=O)OCO2`, the TGI was above 92.2 µM with K-562 leukemia; above 100 µM with DU-145 prostate; above 100 µM with UACC-257 melanoma; above 60.5 µM with ACHN renal; 57.3 µM with T-47D breast; above 100 µM in the assay with MCF7 breast. Moreover, the TGI is 22.5 µM in the assay with CCRF-CEM leukemia, 32.4 µM in the assay on UACC-62 melanoma, 54.7 µM in the assay with MOLT-4 leukemia and above 100 µM with HS 578T breast.

For the compound `O=C(CNc1ccc(Cl)cc1Cl)Nn1c(-c2ccccc2)nc2ccccc2c1=O`, the TGI is 36.5 µM in the assay on K-562 leukemia; 27.5 µM in the assay with DU-145 prostate; 48.6 µM in the assay with UACC-257 melanoma; 37.3 µM in the assay with ACHN renal; 38.5 µM in the assay on T-47D breast; 27.4 µM in the assay with MCF7 breast. Also, the TGI in the assay with CCRF-CEM leukemia was found to be 16.3 µM; in the assay with UACC-62 melanoma it was 19.5 µM; with MOLT-4 leukemia, 43.3 µM; with HS 578T breast it was 71.8 µM.

For the compound `COC(=O)C1=CN(CC2=CC(=O)C(C)=CC2=O)C=C(C(=O)OC)C1c1ccccc1OC`, the GI50 was 0.495 µM with K-562 leukemia; 16.8 µM with DU-145 prostate; 22.3 µM in the assay with UACC-257 melanoma; 14.8 µM in the assay with ACHN renal; 52.8 µM with T-47D breast; 24.4 µM with MCF7 breast. Further, the GI50 in the assay with CCRF-CEM leukemia was 5.48 µM; in the assay on UACC-62 melanoma, 13.3 µM; in the assay with MOLT-4 leukemia it was 5.61 µM; with HS 578T breast, 25.9 µM. Further, the TGI in the assay with K-562 leukemia is 14.9 µM; in the assay with DU-145 prostate it was 31.3 µM; with UACC-257 melanoma, 44.3 µM; in the assay on ACHN renal, 30.6 µM; in the assay with T-47D breast it was above 100 µM; with MCF7 breast, 69.8 µM. Moreover, the TGI came out at 14.1 µM in the assay on CCRF-CEM leukemia, 27.5 µM with UACC-62 melanoma, 14.2 µM in the assay on MOLT-4 leukemia and 77.8 µM with HS 578T breast.

As for `C=C(C)C(C1C=C(CCC(C=O)=C(C)C)C(=O)O1)C1(OC)C=C(C)C(=O)O1` (centres undefined), the GI50 was 73.2 µM in the assay with K-562 leukemia; above 100 µM with DU-145 prostate; above 100 µM in the assay with UACC-257 melanoma; above 100 µM in the assay with ACHN renal; 25.8 µM in the assay on T-47D breast; 7.6 µM in the assay on MCF7 breast. Moreover, the GI50 in the assay on CCRF-CEM leukemia is 25.3 µM; in the assay on UACC-62 melanoma it was 95.4 µM; in the assay on MOLT-4 leukemia it was 34.8 µM; in the assay with HS 578T breast it was above 100 µM. The TGI with K-562 leukemia was above 100 µM; in the assay with DU-145 prostate it was above 100 µM; in the assay with UACC-257 melanoma, above 100 µM; with ACHN renal, above 100 µM; in the assay with T-47D breast it was above 100 µM; in the assay on MCF7 breast, 30.3 µM. For the same compound, the TGI in the assay on CCRF-CEM leukemia, with UACC-62 melanoma, with MOLT-4 leukemia and in the assay on HS 578T breast was above 100 µM throughout.

Values taken from PubChem BioAssay (NCI).
